Laboratory results as given in patent US20210293769A1, “METHOD FOR CULTURING CANCER TISSUE OR TISSUE ANALOGOUS TO CANCER TISSUE” (Chugai Seiyaku Kabushiki Kaisha, priority 2018, published 2021).

Tests used:
Format in all cases: cell-based, human
PLR123 organoids [1] = assay: Regrowth of SN-38-treated PLR123 organoids on re-culture, CellTiter-Glo 3D Cell Viability Assay; conditions: BSO 200 μM and/or AUR 200 nM added upon re-culture of SN-38-treated organoids; n=4, FIG. 13
Description: Specifically, 7-ethyl-10-hydroxycamptothecin (SN-38, Cat #H0165, Merck) was added to the organoids (day 10) prepared in Example 1-1 at a concentration of 300 nM and culture was carried out for three days (SN-38 treatment). After culturing, organoids were recovered by decomposing Matrigel with Dispase I (Cat #386-02271, Fujifilm Wako Pure Chemical Corporation), washed with Cellotion (Cat #CB051, Nippon Zenyaku Kogyo Co., Ltd.), and the washed organoids were suspended in a new Matrigel and dispensed at 20 μL/well into a 96-well plate in which 20-30 μL/well of Matrigel was gelled beforehand. By centrifuging immediately after dispensing, the organoids were aligned on a single plane, making it easier to observe under a microscope. After gelling Matrigel at 37° C., 200 μL/well of an organoid culture medium (Example 1-1) was added and re-culture was carried out at 37° C. in a 5% CO2 environment.
In order to confirm the contribution of GPX1 and GPX2 towards the regrowth of organoids, the gamma-glutamylcysteine synthetase inhibitor L-buthionine-sulfoximine (BSO, Cat #B2515, Merck, 200 μM) and the thioredoxin reductase inhibitor auranofin (AUR, Cat #A6733, Merck, 200 nM) were added upon re-culture in the re-culture method of Example 2-1, and cell proliferation was measured by CellTiter-Glo 3D Cell Viability Assay (FIG. 12).

LGR5 = assay: FACS measurement of LGR5 expression in organoids; conditions: organoids immediately after SN-38 treatment; FIG. 8
Description: […] […] […] The resulting cells were reacted with 2 μg/mL anti-LGR5 antibody (clone 2L36 (Stem Cells, 30, 2631-2644 (2012))) or control mouse IgG2a antibody (clone MG2a-53, Cat #401502, BioLegend) at 4° C. for 1 hour, and then reacted with a PE-labeled secondary antibody (Cat #P-21139, Thermo Fisher Scientific) for 30 minutes at 4° C. Then dead cells were stained with 7-AAD Viability Dye (Cat #A07704, Beckman Coulter) and measured with a flow cytometer (BD FACSAria III, BD Biosciences). PBS containing 2% fetal bovine serum and 0.1% NaN3 was used as the buffer. Data were analyzed using BD FACSDiva (version 8.0.1, BD Biosciences) and FlowJo (version 7.6.5, BD Biosciences).

PLR123 organoids [2] = assay: Pathological (structural) analysis of organoids after SN-38 treatment; conditions: after 300 nM SN-38 for three days; new luminal structure formed from surviving cells during re-culture; FIG. 7
Description: In order to observe the structure of the organoids produced in Example 1-1 in detail, a pathological analysis was performed according to a previous report (J. Toxicol. Pathol. 31, 81-85 (2018)). Specifically, after removing the culture supernatant from each of the three-dimensional cultures (day 7, day 10, day 12, and day 13), 4% paraformaldehyde/phosphate buffer (Cat #09154-14, Nacalai Tesque) was added, and fixation was carried out at room temperature for 30 minutes. Matrigel was decomposed by pipetting, and organoids were collected in a centrifuge tube and washed. Subsequently, the organoids were suspended in a warmed 2% aqueous agarose solution (agarose, Type IX, Cat #A5030, Merck), centrifuged, and then cooled on ice to gel the agarose. This was treated by the AMeX method and embedded in paraffin. Paraffin blocks were sliced and stained with hematoxylin and eosin (HE) or Alcian blue-Periodic acid-Schiff (AB-PAS) by standard methods. Further, anti-LGR5 antibody (clone 2U2E-2 (Stem Cells, 30, 2631-2644 (2012))) and anti-Ki-67 antibody (clone MIB-1, Cat #M7240, Agilent) were used for immunofluorescent staining of the paraffin block sections. […]
The structure of the regrowing organoids was analyzed by pathological analysis in the same manner as in Example 1-3. […]

GPX1 [3] = assay: IHC protein expression analysis of organoids; conditions: immediately after 300 nM SN-38 treatment; expression continued on day 2 of regrowth; FIG. 11
Description: (§1) The protein expression of GPX1 (Uniprot ID: P07203, Refseq accession No. NP_000572) and GPX2 (Uniprot ID: P18283, Refseq accession No. NP_002074) was analyzed by IHC. Using an anti-GPX1 antibody (Cat #ab22604, Abcam, 0.5 ng/mL) and an anti-GPX2 antibody (Cat #ab137431, Abcam, 0.5 ng/mL) with the Envision system (Cat #K4003, Agilent) and peroxidase-diaminobenzidine reaction, the organoids of Example 1-1 (day 10), the SN-38-treated organoids of Example 2-1, and the regrowing organoids of Example 2-1 (day 2, day 6) were each stained. The results of IHC analysis confirmed that the expression of GPX1 and GPX2 increased immediately after the treatment with SN-38 and expression continued even on day 2 of regrowth (FIG. 11).

GPX2 [4] = assay: IHC protein expression analysis of organoids; conditions: immediately after 300 nM SN-38 treatment; expression continued on day 2 of regrowth; FIG. 11
Description: as §1

GPX1 [5] = assay: RNA-seq gene expression analysis of SN-38-treated organoids; conditions: organoids day 10 treated with 300 nM SN-38 for three days vs untreated organoids; n=3, FIG. 10
Description: (§2) The gene expression of the organoids prepared in Example 1-1 was analyzed by RNA-seq. First, total RNA was prepared from 2D-cultured cells and 3D-cultured organoids (day 10) cultured in Example 1-1 using TRIzol Reagent (Cat #15596018, Thermo Fisher Scientific). The quality of the purified total RNA was verified through RNA integrity number (RIN) measured using an Agilent 2100 Bioanalyzer (Agilent) to confirm that the RIN was greater than 9. Next, cDNAs were synthesized and amplified from 1 ng of total RNA using the SMART-Seq v4 Ultra Low Input RNA Kit for Sequencing (Takara Bio). Subsequently, a library was prepared using the Nextera XT DNA Library Prep kit (Illumina), and sequenced at 75 bp paired-end reads using the NextSeq500 system (Illumina). The obtained sequence information was mapped to NCBI RefSeq transcript sequence using RSEM software (v1.2.31), and the gene expression level was calculated by FPKM (Fragments Per Kilobase of exon model per Million mapped reads).
(§3) Gene expression analysis was performed on the organoids of Example 1-1 (day 10) and the SN-38-treated organoids of Example 2-1 using RNA-seq in the same manner as in Example 1-2 (n=3).

GPX2 [6] = assay: as above; conditions: organoids day 10 treated with 300 nM SN-38 for three days vs untreated organoids; n=3, FIG. 10
Description: as §2, §3

SMILES | organoid regrowth (cell proliferation) (PLR123 organoids [1]) | LGR5 expression (FACS) (LGR5) | organoid structure (PLR123 organoids [2]) | protein expression of GPX1 (IHC) (GPX1 [3]) | protein expression of GPX2 (IHC) (GPX2 [4]) | expression of GPX1 (RNA-seq) (GPX1 [5]) | expression of GPX2 (RNA-seq) (GPX2 [6])
CC(=O)OC[C@H]1O[C@@H]([S-])[C@H](OC(C)=O)[C@@H](OC(C)=O)[C@@H]1OC(C)=O.CCP(CC)CC.[Au+] [AUR, auranofin] | suppressed only when both inhibitors were used in combination |  |  |  |  |  | 
CCCCS(=N)(=O)CCC(N)C(=O)O [BSO, L-buthionine-sulfoximine] | suppressed only when both inhibitors were used in combination |  |  |  |  |  | 
CCc1c2c(nc3ccc(O)cc13)-c1cc3c(c(=O)n1C2)COC(=O)[C@]3(O)CC [SN-38, 7-ethyl-10-hydroxycamptothecin] |  | almost no LGR5 expression was observed | once disrupted | increased | increased | increased by two-fold or more | increased by two-fold or more
